From patent US20200010910A1, “Cytotoxic Chemotherapy-Based Predictive Assays for Acute Myeloid Leukemia” (The Regents of The University of California, priority 2017, published 2020)

Experiments:
[1] = tested on: H23, H460, and H727; assay: carboplatin-DNA monoadducts by AMS, average of sensitive NSCLC lines; assay type: cell-based, human; settings: three most sensitive cell lines
Protocol: NSCLC cell lines were cultured to >90% confluence, dosed with [^14C]carboplatin, and subjected to DNA isolation and AMS analysis. 60 mm dishes were seeded at a density of 1×10^6 cells/dish and allowed to attach overnight in a 37° C. humidified atmosphere containing 5% CO2. At hour 0, cells were dosed with 1 μM (relevant microdose concentration) or 100 μM carboplatin (therapeutically relevant concentration), each comprising 0.3 μM [^14C]carboplatin (50,000 dpm/ml). Cells were incubated with [^14C]carboplatin for 4 h before washing and cultured with carboplatin-free medium to mimic the in vivo carboplatin half-life (1.3-6 hours) in patients. DNA was harvested from the cell lines at hours 0, 2, 4, 8 and 24 hours after initial dosing. Ten micrograms of DNA per sample was converted to graphite and measured by AMS for ^14C/total C quantification. Triplicate sets of AMS experiments were performed for each cell line and time point. The 14C/total C ratio was converted to 14C atoms per DNA base-pair according to the algorithm described herein to provide values of carboplatin-DNA monoadducts per 10^8 nucleotides. The data was plotted as carboplatin-DNA monoadducts per 10^8 nucleotide (nt) vs time (FIGS. 8A and 8B). There was a time-dependent increase in the carboplatin-DNA monoadduct concentration during the first 4 hours of incubation with therapeutic or microdosing carboplatin (FIGS. 8A and 8B). […]

[2] = tested on: A549 tumor xenografts; assay: DNA repair: monoadducts remaining in excised xenograft tumor; assay type: in vivo, mice; settings: tumor excised 4 h after microdose, 8 hours in carboplatin-free medium
Protocol: (§1) DNA repair rates in the xenograft tumor cells were also observed to correlate with carboplatin resistance. This is exemplified by the measurement of DNA repair in the A549 and H232A tumor xenografts (FIG. 10D). Four hours after a microdose was administered to three mice each with A549 and H232A tumor xenografts, the animals were sacrificed and tumors were excised. Tissue from each tumor was minced with a scalpel and washed with PBS. Half of the sample was frozen immediately (control) and half was incubated in cell culture medium (no carboplatin) for 8 hours prior to storage. DNA was extracted from the two sets of experiments and analyzed for carboplatin-DNA monoadducts. The resistant A549 cell line had 4±3% of the carboplatin-DNA monoadducts remaining compared to the control, whereas 56±8% of the monoadducts persisted for the drug sensitive H23 cells.

[3] = tested on: H232A tumor xenografts; assay: as above; assay type: in vivo, mice; settings: H23; tumor excised 4 h after microdose, 8 hours in carboplatin-free medium
Protocol: as §1

[4] = tested on: H23; assay: MTT assay IC50; assay type: cell-based, human
Protocol: (§2) Six non-small cell lung cancer (NSCLC) cell lines were treated in culture with [^14C]carboplatin. Carboplatin-DNA monoadduct levels over time were determined by measuring ^14C content in genomic DNA with accelerator mass spectrometry (AMS). Cellular sensitivity to carboplatin and cisplatin was analyzed by the MTT assay (Henderson et al., International Journal of Cancer 2011).
(§3) Human NSCLC cell lines H23, H460, H727, HCC827, H1975, and A549 were purchased from ATCC and were cultured with the recommended medium. The MTT assay was performed as previously reported to determine the drug concentration required to inhibit cell growth by 50% (IC50) of cisplatin and carboplatin. [^14C]Carboplatin (at 53 mCi/mmol) was mixed with unlabeled carboplatin to achieve the specific activities required for microdoses and therapeutic doses. Table 1 lists the six NSCLC cell lines and summarizes their IC50 characteristics, induced carboplatin-DNA monoadducts when treated with [^14C]carboplatin, and p and r^2 values for correlation analysis to the IC50 concentrations.

[5] = tested on: H727; assay: MTT assay IC50; assay type: cell-based, human
Protocol: as §2, §3

[6] = tested on: H460; assay: MTT assay IC50; assay type: cell-based, human
Protocol: as §2, §3

[7] = tested on: HCC827; assay: MTT assay IC50; assay type: cell-based, human
Protocol: as §2, §3

[8] = tested on: A549; assay: MTT assay IC50; assay type: cell-based, human
Protocol: as §2, §3

[9] = tested on: H1975; assay: MTT assay IC50; assay type: cell-based, human
Protocol: as §2, §3

[10] = safety of radiolabeled microdose in patients; settings: IV microdose, 1% of the therapeutic dose
Protocol: Microdoses of the [^14C]Carboplatin were administered to human cancer patients as a diagnostic reagent, followed by full dose platinum-based chemotherapy and evaluation of response. Within four weeks of the [^14C]carboplatin microdose, these patients received standard of care chemotherapy for their disease, which included either carboplatin or cisplatin. The patient population consisted of non-small cell lung cancer patients (NSCLC), stage IV with measurable lesions, and bladder transitional cell carcinoma (TCC) patients, stage II disease and above for neoadjuvant treatment, or stage III and IV metastatic disease with measurable lesions for palliative chemotherapy. Patients were identified for this study as having measurable lesions using the Response Evaluation Criteria in Solid Tumor (RECIST), an Eastern Cooperative Oncology Group performance status of <2, and adequate bone marrow and vital organ function. PBMC and tumor tissue were collected from the patients for analysis of carboplatin-DNA monoadduct frequencies. Toxicity of the [^14C]carboplatin diagnostic reagent administered as a microdose was assessed using Common Terminology Criteria for Adverse Events (CTCAE). Toxicities of grade 3 and above were also collected for patient specific toxic response to full dose chemotherapy for correlation analysis to carboplatin-DNA monoadduct frequency. Patient response to chemotherapy was evaluated using the RECIST for correlation to carboplatin-DNA monoadduct frequency.
The dose of carboplatin in the diagnostic microdose was chosen to be sub-toxic and non-therapeutic, to minimize patient chemical and radiation exposure, and to result in AMS measurable carboplatin-DNA monoadducts. Nineteen patients have been administered at least one microdose of [^14C]carboplatin via IV infusion as a diagnostic reagent. Patient toxicity related to the microdose was monitored from the time of IV microdose until the patients received their first chemotherapy. […] The total radioactive dose given to a 75 kg patient after an IV microdose of [^14C]carboplatin is calculated to be 338 μCi. […]

For `N.N.O=C([O-])C1(C(=O)[O-])CCC1.[Pt+2]` [carboplatin], the “average area under curve (AUC) of carboplatin-DNA monoadducts” value ([1]; microdosing) was 94.61±33.99 hr-monoadducts per 10^8 nt, the “average area under curve (AUC) of carboplatin-DNA monoadducts” value ([1]; therapeutic dosing) was 9617.8±3172.7 hr-monoadducts per 10^8 nt and the “carboplatin-DNA monoadducts remaining compared to the control” value [2] was 4±3%. The “carboplatin-DNA monoadducts remaining compared to the control” value [3] was 56±8%, the IC50 [4] was 19.4 ± 8.65 µM and the IC50 [5] was 53.5 ± 3.65 µM. It also gave an IC50 [6] of 22 ± 5.23 µM, an IC50 [7] of 86.2 ± 10.9 µM and an IC50 [8] of 196 µM. For the same compound, the IC50 [9] was 88.5 ± 30.8 µM, the clinical side effects [10] was “None of the clinical side effects associated with standard therapeutic doses of carboplatin were observed” and the “tolerability of radiolabeled microdose” value [10] was “well tolerated”.
